Here are results for one molecule from article PMC7997579, “Synthetic Lethality in Pancreatic Cancer: Discovery of a New RAD51-BRCA2 Small Molecule Disruptor That Inhibits Homologous Recombination and Synergizes with Olaparib” (Journal of Medicinal Chemistry, 2020).

Molecules are shown by their SMILES. Like-named read-outs stand apart in the source and are kept apart here.

For one assay, the target named is T1, BRC4–RAD51 interaction (Homo sapiens, UniProt Q06609).
T1 construct: purchased Creative Biomart (RAD51); Life Technologies (BRC4 peptide)
T1 sequence (Q06609 1-339): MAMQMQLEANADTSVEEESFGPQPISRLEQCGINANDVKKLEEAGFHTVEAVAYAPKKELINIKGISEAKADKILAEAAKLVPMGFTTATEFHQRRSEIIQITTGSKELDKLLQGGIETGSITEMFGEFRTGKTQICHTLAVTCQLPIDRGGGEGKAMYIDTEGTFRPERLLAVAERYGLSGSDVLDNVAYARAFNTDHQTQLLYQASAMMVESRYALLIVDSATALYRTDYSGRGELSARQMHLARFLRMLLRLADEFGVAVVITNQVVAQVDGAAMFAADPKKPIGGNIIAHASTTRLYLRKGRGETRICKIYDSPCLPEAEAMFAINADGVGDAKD
The assay can be described thus: Competitive biochemical ELISA assay (biotinylated BRC4 peptide vs RAD51). It counts as binding. Summed up:
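Plates coated with N-terminally biotinylated BRC4 peptide were blocked (1% BSA/PBST) and hybridised overnight with human RAD51. Compounds were tested from 0.01 to 100 μM in triplicate (1% DMSO); bound RAD51 was detected by anti-RAD51 and HRP-secondary antibodies with TMB colorimetric read-out.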
On the technique in general: In an ELISA, binding on a coated surface is turned into a signal by an enzyme label.

Another assay concerns HK-2. The assay can be described thus: Cell viability assay (antiproliferative effect), association with olaparib. The class given is cell-based, human. Particulars: HK-2, 72 h, 10 μM olaparib; two-way ANOVA. On the procedure: (§1) Finally, the antiproliferative effect of the 35d/olaparib combination was also studied on the HR-defective Capan-1 culture and on a non-neoplastic cell line derived from human kidney (HK-2). Moreover, to evaluate the antineoplastic potency of the 35d/olaparib association, we also calculated the combination index (CI) of the two compounds, using the procedure previously described[30],[31] (Figure 9).
(§2) Cell viability was assessed with the CellTiter-Glo luminescent cell viability assay from Promega. For this experiment, 1 × 10^4 cells in 200 μL of culture medium were seeded into each well of a 96-multiwell white body plate and allowed to adhere overnight. After 72 h incubation in the presence of olaparib (10 μM) and the RAD51-BRCA2 disruptors alone or in combination, the plate was allowed to equilibrate at room temperature for 30 min and the CellTiter-Glo reactive was directly added to each well. The plate was kept on a shaker for 10 min to induce cell lysis, and its luminescence was measured with a Fluoroskan Ascent FL reader (Labsystems).

The test system of the next assay is Capan-1 cells. Described as above. The class given is cell-based, human. On the procedure:
as §1, §2

For a further assay, the system named is RAD51 in BxPC-3 nuclei. The assay is described as follows: Immunofluorescence of RAD51 nuclear localization after cisplatin. The class given is cell-based, human. The conditions noted are these: BxPC-3, 50 μM cisplatin in association with 20 μM 35d. Here is the method: Immunofluorescence was used for studying RAD51 nuclear translocation and for evaluating DNA damage through the detection of γH2AX nuclear foci. To visualize RAD51 in cell nuclei, BxPC-3 cells were seeded on glass coverslips placed in a 6-well culture plate (2 × 10^5 cells/well) and allowed to adhere overnight. Cultures were then preincubated with 20 μM 35d for 1 h and subsequently exposed to 50 μM cisplatin for an additional 1.5 h. Medium was removed, and cells were maintained in the presence of 20 μM 35d for 4 h. After this time, cultures growing on coverslips were fixed in PBS containing 1% formalin for 20 min, permeabilized in 70% ethanol, air-dried, and washed twice with PBS. Samples were incubated in 10% bovine serum albumin (BSA) in PBS for 30 min at 37 °C and subsequently exposed to an anti-RAD51 mouse monoclonal antibody (Santa Cruz Biotechnology, 1:1000 in 5% BSA/PBS) overnight at 4 °C. After washing, coverslips were incubated with an anti-mouse FITC-conjugated secondary antibody (1:1000 in 1% BSA/PBS) for 1 h at 37 °C, washed, air-dried, and mounted with a solution of DAPI (2 μg/mL) and DABCO.

A further assay has as its system BxPC-3. The assay is described as follows: Cytotoxicity assay (CellTox Green), cell death. The class given is cell-based, human. Particulars: BxPC3, 72 h. Here is the method: Cell death was assessed by applying the CellTox Green cytotoxicity assay (Promega). Briefly, BxPC-3 (1 × 10^4/well) were plated in 96-well plates and treated for 72 h with olaparib (10 μM) and the BRCA2-RAD51 disruptors administered alone or in combination. At the end of treatment, the CellTox dye was added to cell cultures and the green fluorescence signal, which is produced by the binding interaction with dead cell DNA, was measured following the manufacturer’s instructions.

The EC50 is the concentration that produces a half-maximal response. As for `CCC(=O)N1N=C(c2c(-c3ccccc3)c3cc(Cl)ccc3[nH]c2=O)CC1c1ccc(OC)cc1` (centres unmarked) [Compound 35d, 6-Chloro-3-(5-(4-methoxyphenyl)-1-propionyl-4,5-dihydro-1H-pyrazol-3-yl)-4-phenylquinolin-2(1H)-one], the EC50 at BRC4–RAD51 interaction (Table 2, compounds selected for cell-based study, read-out: EC50 ELISA) stood at 19 ± 1 µM; on BRC4–RAD51 interaction (competition with BRC4 for RAD51, triplicate, ± standard deviation, NA = not active, racemic mixtures unless enantiomer named, read-out: EC50 (μM) on ELISA assay) it was 19 ± 1 µM. In the assay with HK-2, the “antiproliferative effect of 35d/olaparib vs olaparib” value was “no dose of 35d appeared to significantly increase”. The “antiproliferative effect of 35d/olaparib” value in the assay with Capan-1 cells (Capan-1, 72 h, 10 μM olaparib, two-way ANOVA) is given as “significantly increased antiproliferative effects”. Further, the “combination index (CI) with olaparib” value with Capan-1 cells (Capan-1, all tested doses of 35d + 10 μM olaparib) is approximately 1. In the assay with RAD51 in BxPC-3 nuclei, the “RAD51 nuclear foci in cisplatin-treated cells” value was “significantly reduced”. Further, the “cell death, effect of olaparib coadministration” value in the assay on BxPC-3 (20 μM 35d + 10 μM olaparib, p < 0.0001) was “markedly increased and statistically significant”; in the assay with BxPC-3 (10–15 μM 35d + 10 μM olaparib) it was “no statistically significant increase”.
